Values joined by “and” are separate entries in the source; they are usually repeats but may differ in a detail not shown here. Equal values may be shown once.
Each compound was assayed on P. falciparum 3D7 growth, pLDH absorbance (assay: P. falciparum 3D7 growth inhibition, dose response, strain 3D7 (AID 2305)).

First: O=C(NCCCCN1CCC(c2ccc3c(c2O)CCCC3)CC1)c1ccc(NC(=O)c2ccc(Cl)cc2)cc1
Second: N#Cc1ccc(-c2ccc(C(=O)NCCCCN3CCC(c4cc(Br)c5c(c4O)CCCC5)CC3)cc2)cc1
The IC50 of the first is 1.6-fold higher: 240 nM for the first, 150 nM for the second.

First: Cc1nc(N)nc(N)c1-c1cc(Cl)c(N)c(Cl)c1
Second: CCCc1cc(Cc2cnc(N)nc2N)cc(CCC)c1OCCCC(=O)OCC
The IC50 of the first is 16-fold higher: 800 nM for the first, 50 nM for the second. The second is the more potent here.

First: CN1CCC(C(=O)Nc2cccc(-c3ccc(-c4nc5ccc(C(F)(F)F)cc5[nH]4)cc3)c2)CC1
Second: C[C@H](NC(=O)C1CCCC1)C(=O)Nc1ccc(-c2ccc(-c3nc4ccc(C(F)(F)F)cc4[nH]3)cc2)cc1
The IC50 of the first is 2.5-fold higher: 680 nM for the first, 270 nM for the second.

Compared with `Cc1[nH]c(C)c(-c2ccc(Oc3ccc(Cl)cc3)cc2)c(=O)c1Br`, `CCC(N)(C#Cc1ccc(-c2c(C)[nH]c(C)c(Br)c2=O)cc1)CC` is 15-fold lower in IC50: 590 nM for the first, 40 nM for the second. The second is the more potent here.

`COc1cc(Nc2nccc(N3CCC(NC(=O)C(C)c4ccc(Cl)cc4)C3)n2)cc(OC)c1OC` (stereo not given) and `COc1ccc(Nc2nccc(N3CCC(NS(=O)(=O)c4ccc(NC(C)=O)cc4)C3)n2)cc1` (stereo not given) are within 1.5-fold of each other in IC50: 760 nM for the first, 800 nM for the second.

`COc1ccc(NC(=O)[C@H](CC(C)C)Nc2cc(C)nc(NCCc3ccccc3)n2)cc1` and `CC(=O)N/N=C/[C@H](CCc1ccccc1)NC(=O)[C@H](CC(C)C)NC(=O)c1ccc(F)cc1` are within 1.5-fold of each other in IC50: 890 nM for the first, 690 nM for the second.

`S=C(Nc1ccccc1Cl)NC1CCC(CN2CCC(c3c[nH]c4ccccc34)CC2)CC1` (stereo not given) and `Oc1ccc2[nH]cc(C3=CCN(Cc4ccccc4)CC3)c2c1` are within 1.5-fold of each other in IC50: 1050 nM for the first, 980 nM for the second.

First: COC(=O)c1ccc(-c2ccc(-c3cccnc3)cc2C)cc1
Second: Cc1cccc2[nH]c(-c3cccc(-c4ccc(C(=O)NCc5nccn5C)cc4)c3)nc12
The IC50 of the first is 2-fold lower: 660 nM for the first, 1320 nM for the second.

`O=C(Cn1c(SCc2cccc(F)c2F)cc(=O)c2ccccc21)N(CCc1cnc[nH]1)Cc1ccc(-c2ccc(C(F)(F)F)cc2)cc1` and `COc1ccc(C(=O)Nc2ccc3oc(-c4ccc(C(F)(F)F)cc4)cc3c2)cc1CCCN(C)C` are within 1.5-fold of each other in IC50: 800 nM for the first, 700 nM for the second.

Going from `Cc1ccc(-c2nc(N3CCN(C(=O)c4ccco4)CC3)c3ccc(Cl)cc3n2)cc1` to `COc1cc2nc(N3CCC(CNC(=O)c4ccc(-c5ccc(Cl)cc5)cc4)CC3)nc(N)c2cc1OC`, the IC50 falls from 1210 nM to 150 nM (8.1-fold). The second is the more potent here.

Going from `N#Cc1ccc(N2CCN(Cc3ccc(-c4ccc(-c5nc6ccc(C(F)(F)F)cc6[nH]5)s4)cc3)CC2)nc1` to `Cc1cccc2[nH]c(-c3ccc(-c4ccc(NC(=O)Nc5ccc(Cl)cc5)cc4)s3)nc12`, the IC50 falls from 810 nM to 150 nM (5.4-fold).

Compared with `Cn1cncc1C(=O)Nc1ccc(-c2cccc(-c3nc4ccc(F)cc4[nH]3)c2)cc1`, `Fc1ccc2nc(-c3cccc(-c4ccc(CNCC5CCCO5)cc4)c3)[nH]c2c1` (stereo not given) is 1.5-fold lower in IC50: 820 nM for the first, 540 nM for the second. The second is the more potent here.

`C=C(C)Cn1cc(C2CCN(CCCCNC(=O)c3sc(-c4ccc(Cl)cc4Cl)nc3CO)CC2)c2ccccc21` and `CNC(=O)COc1cc(C)c(C2CCN(CCCCNC(=O)c3ccc(-c4ccc(C(F)(F)F)cc4)cc3)CC2)cc1C` are within 1.5-fold of each other in IC50: 1150 nM for the first, 870 nM for the second.

`Cc1cc2nc(-c3ccc(OCC(=O)NCc4ccc(C(C)(C)C)cc4)cc3)[nH]c2cc1C` and `Cc1ccc(-n2c(=O)c3cccnc3n2CC(=O)Nc2cccc(C)c2C)cc1` are within 1.5-fold of each other in IC50: 1060 nM for the first, 860 nM for the second.

`CC1CCCCN1CCCNc1nc(NCc2ccccc2)c2ccccc2n1` (stereo not given) and `COc1ccc(CNCc2ccccc2)cc1-c1ccc(S(=O)(=O)NCCN2CCCC2)c(C)c1` are within 1.5-fold of each other in IC50: 950 nM for the first, 860 nM for the second.

`C=C(C)CSc1nc2c(c(=O)n1Cc1ccco1)C1(CCCCC1)Cc1ccccc1-2` and `NC(=O)c1cccc(CN2Cc3ccccc3OC3(CCN(Cc4c[nH]c5cnccc45)CC3)C2)c1` are within 1.5-fold of each other in IC50: 1000 nM for the first, 1060 nM for the second.

`CCCC(CNC(=O)c1cc2c(Cl)cc(Cl)cc2[nH]1)CNc1cc(=O)c2ccccc2[nH]1` (stereo not given) and `CCc1cccc(-n2c(=O)c3cccnc3n2CC(=O)NCc2ccccc2Cl)c1` are within 1.5-fold of each other in IC50: 900 nM for the first, 740 nM for the second.

`CCCNCc1ccc(-c2ccc(CNC3Cc4ccccc4C3)cc2)nc1` and `Cc1cc(CNCCCCCNCc2ccc(Cl)cc2)ccc1O` are within 1.5-fold of each other in IC50: 850 nM for the first, 710 nM for the second.

`CC[C@H]1CN2CCc3cc(OC)c(OC)cc3[C@@H]2C[C@@H]1C[C@H]1NCCc2c1cc(OC)c(OC)c2Br` and `COc1c(Br)cc(Br)cc1-c1ccc(CN2CC3CCC2CC3)[nH]1` are within 1.5-fold of each other in IC50: 650 nM for the first, 690 nM for the second.

`CC(C)COc1ccc(Cl)cc1Cc1ccc(-c2nc3ccc(Cl)cc3[nH]2)o1` and `COc1ccc(-c2ccc(NC(=O)c3cccc(Cl)c3)cc2)cc1CN1CCCC1` are within 1.5-fold of each other in IC50: 930 nM for the first, 710 nM for the second.

Going from `O=C(Nc1ccc(OC(F)(F)F)cc1)NC1CCN(c2ccnc3ccccc23)CC1` to `O=C(NC1CCN(CCN2CCc3ccccc3CC2)CC1)c1ccc(-c2ccc(C(F)(F)F)cc2)cc1`, the IC50 rises from 300 nM to 930 nM (3.1-fold). The first is the more potent here.

First: Cc1cc(=O)[nH]c(/N=C(/N)NOCc2ccccc2)n1
Second: CC(=O)c1ccc(-c2ccccc2)s1
The IC50 of the first is 2.6-fold lower: 420 nM for the first, 1080 nM for the second.

`O=C(Nc1ccc2oc(-c3ccc(Br)cc3)nc2c1)c1ccc([N+](=O)[O-])o1` and `O=C(NC(Nc1ccc([N+](=O)[O-])cc1)C(Cl)(Cl)Cl)c1ccc(Cl)cc1` (stereo not given) are within 1.5-fold of each other in IC50: 970 nM for the first, 780 nM for the second.

Compared with `CCCCCC(C)NC[C@@H](O)[C@H](Cc1ccccc1)NC(=O)c1cc(NCC)cc(N2CCCCS2(=O)=O)c1` (stereo not given in full), `COc1ccc(-c2cc(C(=O)N[C@@H](Cc3ccccc3)C(=O)NCCN3CCCCC3)ccc2O)cc1` is 2-fold higher in IC50: 400 nM for the first, 790 nM for the second. The first is the more potent here.

`CC1CN=C(Nc2ncc(Cl)cc2Cl)N1` (stereo not given) and `CC(=NN=C(N)N)C(=O)Nc1ccc(Cl)c(Cl)c1` are within 1.5-fold of each other in IC50: 240 nM for the first, 170 nM for the second.

`Clc1ccc(-c2cc(-c3csc(NCCN4CCOCC4)n3)on2)c(Cl)c1` and `O=C(Nc1ccc(S(=O)(=O)N2CCCCC2)cc1)c1cc(-c2cc(Cl)ccc2O)n[nH]1` are within 1.5-fold of each other in IC50: 660 nM for the first, 810 nM for the second.

First: CS(=O)(=O)CCNc1nccc(N2CCc3ncnc(Nc4ccc(OCc5cccc(F)c5)c(Cl)c4)c3C2)n1
Second: COc1ccc(Nc2nccc(-c3ccc4ccnc(NCCCCN)c4c3)n2)cc1
The IC50 of the first is 5.8-fold lower: 130 nM for the first, 750 nM for the second.

First: CC(C)NCc1cccc(-c2ccc(NS(=O)(=O)c3cccc4cccnc34)cc2)c1
Second: CN1CCN(Cc2cccc(Nc3nccc(Nc4ccc(Oc5ccccc5)cc4)n3)c2)CC1
The IC50 of the first is 3.6-fold higher: 1080 nM for the first, 300 nM for the second. The second is the more potent here.

First: COc1ccc(CCNC(C)Cc2ccc(C(=O)Nc3ccc(CC(C)NCCc4cccc(Cl)c4)cc3)cc2)cc1 (stereo not given)
Second: CCc1ccc(NC(=O)c2cccc(CN3CCCN(Cc4ccc(OC)cc4)CC3)c2)cc1
The IC50 of the first is 3.7-fold lower: 250 nM for the first, 920 nM for the second.

Compared with `COc1ccc(NC(=O)/C=C/c2ccccc2Cl)cc1OCCN1CCC(N2CCCCC2)CC1`, `COc1ccc(NC(=O)/C=C/c2ccccc2Cl)cc1OCCN1CCC(N2CCN(C)CC2)CC1` is 1.8-fold lower in IC50: 900 nM for the first, 490 nM for the second.

Going from `CCCOc1ccc(C=C(CC(=O)O)c2nc3ccccc3s2)cc1OCC` to `O=C(NC1CC1)c1ccc(N2CCCC(COc3ccccc3F)C2)nc1` (stereo not given), the IC50 rises from 550 nM to 900 nM (1.6-fold).

`Cc1ccc(NC(=O)C2CCC2)cc1-c1ccc(C(=O)NCC2CC2)cc1` and `Cc1ccc(C(=O)Nc2cccc(CN3CCCN(Cc4ccc(O)cc4)CC3)c2)s1` are within 1.5-fold of each other in IC50: 740 nM for the first, 1000 nM for the second.

Compared with `COc1cc2ccccc2cc1CCNCCCCNCCc1cc2ccccc2cc1OC`, `CN(c1ccccc1C(=O)Nc1ccccc1Oc1ccccc1)S(=O)(=O)c1ccccc1` is 2.9-fold higher in IC50: 400 nM for the first, 1150 nM for the second.

`Cc1cc(NC(=O)CCCN2CCN(c3cccc(Cl)c3Cl)CC2)ccc1N1CCN(C(C)C)CC1` and `CN1CCC(O)(c2ccc(Br)cc2)C(C(O)c2ccc(Br)cc2)C1` (stereo not given) are within 1.5-fold of each other in IC50: 760 nM for the first, 730 nM for the second.

`CCN(CC)CC#Cc1ccc2[nH]c(C)c(Cl)c(=O)c2c1` gave an IC50 of 700 nM.

In the case of `Cc1ccc(/C=C/C(=O)NC2CCC(CN3CCC(c4c[nH]c5ccccc45)CC3)CC2)cc1C` (stereo not given), the IC50 is reported as 820 nM and 830 nM.
